Source: patent US20220015371A1, “Compositions and Methods for Reducing Pesticide-Induced Plant Damage and Improving Plant Yield” (priority 2018, published 2022)

How the values were obtained:
[1] = tested on: rice of the variety Presidio; test: Rice crop injury in herbicide application program, field trial; details: visually rated 8 May, 0 = no injury, 100 = complete plant death
Excerpt: (§1) To further evaluate the performance of certain embodiments of the present disclosure, bacterial fermentation product of the present disclosure was applied in a common herbicide application program to test herbicide injury tolerance, weed control, grain yield and milling quality in rice. Experiments were established in a field of Crowley fine sandy loam soil (59% sand, […], 12% clay, 0.7% organic matter and pH 5.3). The field was cropped to rice for every third year for many years and was naturally infested with many weeds. Plots consisted of six 18-ft rows, spaced 7.5-in. between rows. The experiment was conducted as a randomized completed block design with four replications. The trial consisted of six treatments (see Table 12, below).
(§2) Rice of the variety Presidio was drill seeded at 70 lb/acre on 5 Apr. Seeds for treatments 2, 4, 5 and 6 were treated with Composition E at 2.3 oz product/CWT prior to planting. Compositions A and B were applied at 7 oz product/acre on 1 May (postemergence), 2 Jun (panicle differentiation, PD) and 19 Jun (boot), using a CO2 pressurized, hand-held sprayer equipped with a boom of three TeeJet 8002VS nozzles spaced 19-in. apart that traveled at 3 mph and delivered at 29 gal/acre at 40 psi. […]

broadleaf signalgrass = test: Weed control in rice field trial: broadleaf signalgrass; format: in vivo; details: visually rated 8 May
Excerpt: as §1, §2

yellow nutsedge = test: Weed control in rice field trial: yellow nutsedge; format: in vivo; details: visually rated 8 May
Excerpt: as §1, §2

carpet weed = test: Weed control in rice field trial: carpet weed; format: in vivo; details: visually rated 8 May
Excerpt: as §1, §2

[2] = tested on: glyphosate-tolerant Palmer Amaranth; test: Palmer Amaranth shoot and root weight, greenhouse conditions; format: in vivo, Amaranthus palmeri; details: two weeks after spraying
Excerpt: To test the effects of the inventive plant treatment product on weed survival in herbicide-tolerant Palmer Amaranth (Amaranthus palmeri) plants, the plant treatment product (Composition C+herbicide) or herbicide component (alone) were applied to weeds, in greenhouse conditions. […] The measurements of dry shoot mass and dry root mass were taken two weeks after spraying.

rice seedlings = test: Example 2: rice seedlings stressed by post-emergence halosulfuron, field trial; format: in vivo; details: halosulfuron post-emergence 1800 ml/ha, Composition E seed treatment 150 ml/100 kg seed where applied (FIGS. 7A, 7B)
Protocol: To test the effect of seed application of an inventive fermentation culture lysate composition on rice seedlings stressed by post-emergence application of the chemical herbicide halosulfuron, various field trial(s) were conducted. Control fields (FIGS. 6A, 7A) were treated with herbicide formulation comprising halosulfuron (post-emergence at 1800 ml/ha). Test fields (FIGS. 6B, 7B) included seedling treated with the herbicide formulation comprising halosulfuron (post-emergence at 1800 ml/ha) from seeds treated with fermentation culture lysate Composition E (seed treatment at 150 ml/100 kg seed) during planting.

rice plants [3] = test: Example 5: rice plants stressed by foliar cyhalofop, field trial; format: in vivo; details: cyhalofop 1500 ml/ha, three days after application (FIG. 12A)
Protocol: (§3) To test the effect of foliar application of an inventive fermentation culture lysate composition on rice plants stressed by foliar application of the chemical herbicide cyhalofop, field trial(s) were conducted. Control fields (FIG. 11, A; FIG. 12A) were treated with herbicide formulation comprising cyhalofop (foliar application at 1500 ml/ha). Test fields (FIG. 11, B; FIG. 12B) were treated with a combination of the herbicide formulation comprising cyhalofop (foliar application at 1500 ml/ha) and fermentation culture lysate Composition B (foliar application at 500 ml/ha).

rice plants [4] = test: Example 3: rice plants stressed by foliar propanil, field trial; format: in vivo; details: propanil 4000 ml/ha, three days after application (FIG. 9A)
Protocol: as §3, with “propanil,” for “cyhalofop,”, “8,” for “11,”, “9A)” for “12A)”, “propanil” for “cyhalofop”, “4000” for “1500”, “9B)” for “12B)”

rice plants [5] = test: Example 6: rice plants stressed by foliar profoxydim, field trial; format: in vivo; details: profoxydim 750 ml/ha, three days after application (FIG. 14A)
Protocol: To test the effect of foliar application of inventive fermentation culture lysate composition(s) on rice plants stressed by foliar application of the chemical herbicide profoxydim, field trial(s) were conducted. Control fields (FIG. 13, A; FIG. 14A) were treated with herbicide formulation comprising profoxydim (foliar application at 750 ml/ha). Test fields were treated with either (FIG. 13, B; FIG. 14B) a combination of (i) herbicide formulation comprising profoxydim (foliar application at 750 ml/ha) and (ii) fermentation culture lysate Composition B (foliar application at 500 ml/ha) or (FIG. 13, C; FIG. 14C) a combination of (i) herbicide formulation comprising profoxydim (foliar application at 750 ml/ha), (ii) fermentation culture lysate Composition B (foliar application at 500 ml/ha), and (iii) fermentation culture lysate Composition F (foliar application at 500 ml/ha).

[6] = glyphosate 1.27 kg/ha, Composition C 1 liter/ha

CC1(C)CON(Cc2ccccc2Cl)C1=O [clomazone PRE, clomazone]
Crop injury (%) [1]: 5.0 d^y %
Weed Control (%) Broadleaf signalgrass (broadleaf signalgrass): 90 b %
Weed Control (%) Yellow nutsedge (yellow nutsedge): 0 b %
Weed Control (%) Carpet weed (carpet weed): 0 c %

O=C(O)CNCP(=O)(O)O [Herbicide, glyphosate]
Palmer Amaranth root dry weight per plant [2, 6]: 0.768
Palmer Amaranth root fresh weight per plant [2, 6]: 4.70
Palmer Amaranth shoot dry weight per plant [2, 6]: 5.31
Palmer Amaranth shoot fresh weight per plant [2, 6]: 15.0
Palmer Amaranth root dry weight, change vs Untreated Control [2]: −40.9%
Palmer Amaranth root fresh weight, change vs Untreated Control [2]: −51.3%
Palmer Amaranth shoot dry weight, change vs Untreated Control [2]: −7.01%
Palmer Amaranth shoot fresh weight, change vs Untreated Control [2]: −20.6%

COc1cc(OC)nc(NC(=O)NS(=O)(=O)c2c(C(=O)O)c(Cl)nn2C)n1 [halosulfuron]
bleaching of rice seedlings (rice seedlings): caused bleaching

C[C@@H](Oc1ccc(Oc2ccc(C#N)cc2F)cc1)C(=O)O [cyhalofop]
phytotoxicity symptoms (rice plants [3]): showed phytotoxicity symptoms

CCC(=O)Nc1ccc(Cl)c(Cl)c1 [propanil]
phytotoxicity symptoms (rice plants [4]): showed phytotoxicity symptoms

CCCC(=NOCC(C)Oc1ccc(Cl)cc1)C1=C(O)CC(C2CCCSC2)CC1=O (stereo not shown) [profoxydim]
phytotoxicity symptoms (rice plants [5]): showed phytotoxicity symptoms
